Legend:
[1] = tested on: HCV replicon 2b (GT1b/2b NS5B chimera); assay: microbe, parasite or virus in culture; format: cell-based; conditions: Hepatitis C virus, read-out: EC50 (μM) 2b (GT1b/2b NS5B chimera)
[2] = tested on: HCV replicon 3a (GT1b/3a NS5B chimera); assay: microbe, parasite or virus in culture; format: cell-based; conditions: Hepatitis C virus, read-out: EC50 (μM) 3a (GT1b/3a NS5B chimera)
[3] = tested on: HCV replicon 4a (GT1b/4a NS5B chimera); assay: microbe, parasite or virus in culture; format: cell-based; conditions: Hepatitis C virus, read-out: EC50 (μM) 4a (GT1b/4a NS5B chimera)
Cytotoxicity panel, CEM = conditions: human, CEM cells, Cytotoxicity (CC50 uM) CEM
[4] = Cytotoxicity panel, Huh-7; conditions: human, Huh-7 cells, Cytotoxicity (CC50 uM) Huh-7, Huh-7
[5] = Cytotoxicity panel, HepG2; conditions: human, HepG2 cells
HBV = HBV replication assay; format: cell-based; conditions: Hepatitis B virus
Procedure: Ten microliters of cell culture supernatant collected on the sixth day was diluted in qPCR dilution buffer (40 μg/mL sheared salmon sperm DNA) and boiled for 15 minutes. Quantitative real time PCR was performed in […] using an Applied Biosystems 7900HT Sequence Detection System and the supporting SDS 2.4 software. Five microliters (5 μL) of boiled DNA for each sample and serial 10-fold dilutions of a quantitative DNA standard were subjected to real time Q-PCR using Platinum Quantitative PCR SuperMix-UDG (Invitrogen) and specific DNA oligonucleotide primers (IDT, Coralville, […]) HBV-AD38-qFI (5′-[…] -3′) (SEQ ID NO: 1), HBV-AD38-qR1 (5′-AGT CCA AGA GTY CTC TTA TRY AAG ACC TT-3′) (SEQ ID NO: 2), and HBV-AD38-qPI (5′-FAM CCG TGT GCA/ZEN/[…] -3′BHQ1) (SEQ ID NO: 3) at a final concentration of 0.2 μM for each primer in a total reaction volume of 15 μL. The HBV DNA copy number in each sample was interpolated from the standard curve by the SDS.24 software and the data were imported into an Excel spreadsheet for analysis.

[6] = Cytotoxicity in HepG2 cells (HBV assay); format: cell-based; conditions: human, HepG2.2.15 cells; beside HBV
Procedure: The 50% cytotoxic concentration for the test materials are derived by measuring the reduction of the tetrazolium dye XTT in the treated tissue culture plates. XTT is metabolized by the mitochondrial enzyme […] to a soluble formazan product in metabolically active cells. […] The 2-4 hour incubation has been empirically determined to be within linear response range for XTT dye reduction with the indicated numbers of cells for each assay. […] Data were collected by Softmax 4.6 software and imported into an Excel spreadsheet for analysis.

Adenovirus = Adenovirus replication assay; format: cell-based; conditions: unidentified adenovirus
HSV-1 = HSV-1 replication assay; format: cell-based; conditions: Human alphaherpesvirus 1
[7] = Cytotoxicity in Huh-7 cells (HSV-1 assay); format: cell-based; conditions: human, beside HSV-1
HIV = HIV infected PBMC assay; format: cell-based, HIV-1; conditions: Human immunodeficiency virus 1, PBMC
Procedure: Fresh human peripheral blood mononuclear cells (PBMCs) were obtained from a commercial source (Biological Specialty) and were determined to be seronegative for HIV and HBV. Depending on the volume of donor blood received, the leukophoresed blood cells were washed several times with PBS. After washing, the leukophoresed blood was diluted 1:1 with Dulbecco's phosphate buffered saline (PBS) and layered over 15 mL of Ficoll-Hypaque density gradient in a 50 ml conical centrifuge tube. These tubes were centrifuged for 30 min at 600 g. Banded PBMCs were gently aspirated from the resulting interface and washed three times with PBS. […] After incubation, PBMCs were centrifuged and resuspended in tissue culture medium. The cultures were maintained until use by half-volume culture changes with fresh IL-2 containing tissue culture medium every 3 days. […]
Following addition of test compound to the wells, 50 uL of a predetermined dilution of HIV virus (prepared from 4× of final desired in-well concentration) was added, and mixed well. […] After 7 days in culture, HIV-1 replication was quantified in the tissue culture supernatant by measurement of reverse transcriptase (RT) activity. […]
Reverse Transcriptase Activity Assay—Reverse transcriptase activity was measured in cell-free supernatants using a standard radioactive incorporation polymerization assay. […]

[8] = Cytotoxicity in PBM cells (HIV assay); format: cell-based; conditions: human, peripheral blood mononuclear cells (PBMCs), PHA-P stimulated; beside HIV
HCMV = HCMV replication assay; format: cell-based; conditions: Human betaherpesvirus 5
[9] = Cytotoxicity in MRC-5 cells (HCMV assay); format: cell-based; conditions: human, beside HCMV
VZV = VZV replication assay; format: cell-based; conditions: Human alphaherpesvirus 3
[10] = Cytotoxicity in MRC-5 cells (VZV assay); format: cell-based; conditions: human, beside VZV
Huh-7 = assay: Cytotoxicity panel, Huh-7; conditions: read-out: Cytotoxicity (CC50 uM) Huh-7; Huh-7
[11] = Toxicity in Huh-7 cells (Dengue assay); conditions: human, Huh-7 cells
HepG2 = assay: Cytotoxicity panel, HepG2; conditions: read-out: Cytotoxicity (CC50 uM) HepG2; HepG2
[12] = Toxicity in Vero cells (Dengue assay); conditions: African green monkey
Huh-7 cells = assay: Toxicity in Huh-7 cells (Dengue assay); conditions: read-out: CC50 uM; Cell Line Huh-7, pan-serotype Dengue table
Dengue Type 2 [13] = assay: Anti-Dengue virus cytoprotection assay, Vero cells; conditions: read-out: Dengue Type 2 Vero Cells (EC50 uM)
Dengue Type 2 [14] = assay: Anti-Dengue virus cytoprotection assay, Huh-7 cells; conditions: Huh-7, read-out: Dengue Type 2 Huh-7 Cells (EC50 uM)

CC(C)OC(=O)[C@H](C)N[P@](=O)(OC[C@H]1O[C@@H](n2ccc(=O)[nH]c2=S)[C@](C)(O)C1O)Oc1ccccc1 (stereo partly shown) [ENUC-02023-1]
EC50 [1]: 0.0445 µM
EC50 [2]: 0.0367 µM
EC50 [3]: 0.0254 µM
CC50 (Cytotoxicity panel, CEM): > 400 µM
CC50 [4]: 252 µM
CC50 [5]: > 400 µM

CC(C)OC(=O)[C@H](C)NP(=O)(OC[C@H]1O[C@@H](n2ccc(=O)[nH]c2=S)[C@](C)(O)C1O)Oc1ccccc1 (stereo partly shown) [ENUC-01911]
EC50 (HBV): > 100 µM
CC50 at 6 days [6]: > 100 µM
EC50 (Adenovirus): > 100 µM
EC50 (HSV-1): > 100 µM
CC50 [7]: > 100 µM
EC50 (HIV): > 100 µM
CC50 at 7 days [8]: > 100 µM
EC50 (HCMV): > 100 µM
CC50 [9]: > 100 µM
EC50 (VZV): > 100 µM
CC50 [10]: > 100 µM
CC50 (Huh-7): > 400 µM
CC50 [11]: > 100 µM

CC(C)OC(=O)[C@H](C)N[P@](=O)(OC[C@H]1O[C@@H](n2ccc(=O)[nH]c2=S)[C@](C)(O)C1O)Oc1ccccc1 (stereo partly shown) [ENUC-02023]
CC50 (HepG2): > 400 µM
CC50 [12]: > 100 µM
CC50 [11]: > 100 µM
CC50 (Huh-7 cells): > 100 µM
EC50 (Dengue Type 2 [13]): 2.35 µM
EC50 (Dengue Type 2 [14]): 5.62 µM
